Tests used:
[1] = target: T1, human recombinant 5-HT2A receptor (Homo sapiens, UniProt P28223); experiment: Affinity for 5-HT2A receptor binding sites (competitive radioligand binding, [3H]ketanserin); settings: membranes of NIH3T3 with h5-HT2A, * = tested as hydrochloride salt
T1 construct: expressed in transfected cells; host or cells: NIH3T3
Method: (§1) Stock drug solutions (10 mM) were prepared in DMSO (the final assay concentration of DMSO not exceeding 0.4%). Drug dilutions were prepared in assay buffer.
(§2) Sigmoidal inhibition curves were generated and fitted by nonlinear regression analysis (GraphPad Prism).
(§3) 2. Affinity for 5HT2 Receptor Binding Sites
(§4) Receptor binding was performed using the human recombinant 5-HT2A (GB: X57830), 5-HT2B (GB: Z36748) and 5-HT2C (GB: M81778) receptors. The affinity of the compounds for the 3 different human 5-HT2 receptor subtypes was evaluated by competitive radioligand binding assays using [^3H]ketanserin (h5-HT2A) or [^3H]mesulergine (h5-HT2B and h5-HT2C). The assays were performed on membranes prepared from NIH3T3 stably transfected with h5-HT2A or CHO stably transfected with h5-HT2B and h5-HT2C.

[2] = target: T2, human recombinant 5-HT2B receptor (Homo sapiens, UniProt P41595); experiment: Affinity for 5-HT2B receptor binding sites (competitive radioligand binding, [3H]mesulergine); settings: membranes of CHO with h5-HT2B, * = tested as hydrochloride salt
T2 construct: expressed in transfected cells; host or cells: CHO
Method: as §1, §2, §3, §4

[3] = target: T3, human recombinant 5-HT2C receptor (Homo sapiens, UniProt P28335); experiment: Affinity for 5-HT2C receptor binding sites (competitive radioligand binding, [3H]mesulergine); settings: membranes of CHO with h5-HT2C, * = tested as hydrochloride salt
T3 construct: expressed in transfected cells; host or cells: CHO
T3 sequence (P28335 33-458): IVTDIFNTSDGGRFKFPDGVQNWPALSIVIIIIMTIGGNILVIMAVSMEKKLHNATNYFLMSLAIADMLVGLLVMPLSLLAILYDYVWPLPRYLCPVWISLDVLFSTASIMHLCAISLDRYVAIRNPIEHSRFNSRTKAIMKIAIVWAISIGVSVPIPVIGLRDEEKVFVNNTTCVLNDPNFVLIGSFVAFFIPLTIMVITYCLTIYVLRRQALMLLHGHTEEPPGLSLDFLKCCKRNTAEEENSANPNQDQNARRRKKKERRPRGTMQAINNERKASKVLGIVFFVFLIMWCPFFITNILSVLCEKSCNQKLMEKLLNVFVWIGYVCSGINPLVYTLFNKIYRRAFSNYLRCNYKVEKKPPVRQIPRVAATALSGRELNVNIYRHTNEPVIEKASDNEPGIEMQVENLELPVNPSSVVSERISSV
Method: as §1, §2, §3, §4

[4] = target: T4, human recombinant 5-HT6 receptor (Homo sapiens, UniProt P50406); experiment: Affinity for 5-HT6 receptor binding sites (competitive radioligand binding, [3H]LSD); settings: membranes of HEK-293 with h5-HT6, * = tested as hydrochloride salt
T4 construct: expressed in transfected cells; host or cells: HEK-293
Method: as §1, §2
3. Affinity for 5-HT6 Receptor Binding Sites
Receptor binding was performed using the human recombinant 5-HT6 (GB: BC0794995) receptor. The affinity of the compounds for the human 5-HT6 receptor was evaluated by competitive radioligand binding assays using [^3H]LSD. The assays were performed on membranes prepared from HEK-293 stably transfected with h5-HT6. Non-specific binding was estimated in the presence of 1 μM clozapine.

T2 sequence (P41595 whole entry): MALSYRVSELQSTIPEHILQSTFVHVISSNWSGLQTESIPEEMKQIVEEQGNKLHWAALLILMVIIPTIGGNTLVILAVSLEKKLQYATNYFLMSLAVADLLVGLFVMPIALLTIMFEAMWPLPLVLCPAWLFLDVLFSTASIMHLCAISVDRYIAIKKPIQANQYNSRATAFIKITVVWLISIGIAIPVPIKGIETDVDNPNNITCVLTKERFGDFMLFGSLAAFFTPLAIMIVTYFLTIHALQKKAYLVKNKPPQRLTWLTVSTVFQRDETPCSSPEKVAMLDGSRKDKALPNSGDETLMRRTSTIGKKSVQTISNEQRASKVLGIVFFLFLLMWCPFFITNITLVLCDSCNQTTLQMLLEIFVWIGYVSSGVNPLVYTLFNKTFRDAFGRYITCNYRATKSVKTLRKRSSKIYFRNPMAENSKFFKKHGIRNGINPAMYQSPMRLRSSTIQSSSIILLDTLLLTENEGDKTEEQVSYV
T4 sequence (P50406 whole entry): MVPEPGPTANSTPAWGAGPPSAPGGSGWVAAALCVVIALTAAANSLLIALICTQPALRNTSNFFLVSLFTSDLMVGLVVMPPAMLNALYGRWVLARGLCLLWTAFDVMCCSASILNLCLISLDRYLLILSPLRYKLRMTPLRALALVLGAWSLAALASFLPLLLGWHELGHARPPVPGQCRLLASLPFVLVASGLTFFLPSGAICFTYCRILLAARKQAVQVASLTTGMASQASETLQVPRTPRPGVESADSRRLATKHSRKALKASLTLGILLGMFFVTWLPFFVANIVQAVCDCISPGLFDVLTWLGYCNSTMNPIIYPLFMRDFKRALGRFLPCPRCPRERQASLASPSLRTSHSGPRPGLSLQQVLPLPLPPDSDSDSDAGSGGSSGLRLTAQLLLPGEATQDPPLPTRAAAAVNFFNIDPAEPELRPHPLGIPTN
T1 sequence (P28223 whole entry): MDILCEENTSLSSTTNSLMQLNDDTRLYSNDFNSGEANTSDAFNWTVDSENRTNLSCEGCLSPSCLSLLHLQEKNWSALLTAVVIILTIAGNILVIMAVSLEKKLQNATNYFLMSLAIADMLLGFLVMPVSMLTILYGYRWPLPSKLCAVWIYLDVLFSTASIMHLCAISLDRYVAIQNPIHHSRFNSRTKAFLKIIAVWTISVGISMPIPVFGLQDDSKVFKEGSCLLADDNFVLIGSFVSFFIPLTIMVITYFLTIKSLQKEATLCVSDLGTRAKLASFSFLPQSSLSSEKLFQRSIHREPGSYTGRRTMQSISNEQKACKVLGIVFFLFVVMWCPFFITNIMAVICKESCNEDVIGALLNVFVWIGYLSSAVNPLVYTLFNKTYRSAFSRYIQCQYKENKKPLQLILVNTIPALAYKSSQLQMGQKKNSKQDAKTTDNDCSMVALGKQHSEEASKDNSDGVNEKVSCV

| SMILES | Ki [1] | Ki [2] | Ki [3] | Ki [4] |
| --- | --- | --- | --- | --- |
| CC1CCCN1c1nc2c(c(-c3ccc(Cl)cc3)n1)CNCCC2 (centres unmarked) [Example 53, 4-(4-Chloro-phenyl)-2-(2-methyl-pyrrolidin-1-yl)-6,7,8,9-tetrahydro-5H-1,3,6-triaza-benzocycloheptene] | 2000 nM | 1200 nM | > 10000 nM | – |
| Clc1ccc(-c2nc(NCc3ccccc3)nc3c2CNCCC3)cc1 [Example 55, Benzyl-[4-(4-chloro-phenyl)-6,7,8,9-tetrahydro-5H-1,3,6-triaza-benzocyclohepten-2-yl]-amine] | 50 nM | > 10000 nM | 1100 nM | – |
| Clc1ccc(-c2nc(N3CCOCC3)nc3c2CNCCC3)cc1 [Example 57, 4-(4-Chloro-phenyl)-2-morpholin-4-yl-6,7,8,9-tetrahydro-5H-1,3,6-triaza-benzocycloheptene] | 500 nM | > 10000 nM | > 10000 nM | 2290 nM |
| Clc1ccc(-c2nc(N3CCOCC3)nc3c2CCNCC3)cc1 [Example 58, 4-(4-Chloro-phenyl)-2-morpholin-4-yl-6,7,8,9-tetrahydro-5H-pyrimido[4,5-d]azepine] | 17 nM | 30 nM | 20 nM | 102 nM |
| Cc1ccc(-c2nc(N3CCS(=O)(=O)CC3)nc3c2CCNCC3)cc1 [Example 64, 2-(1,1-Dioxo-1λ^6-thiomorpholin-4-yl)-4-p-tolyl-6,7,8,9-tetrahydro-5H-pyrimido[4,5-d]azepine] | 520 nM | 620 nM | 1260 nM | 29 nM |
| Cc1ccc(-c2nc(N3CCS(=O)(=O)CC3)nc3c2CCN(C)CC3)cc1 [Example 65, 2-(1,1-Dioxo-1λ^6-thiomorpholin-4-yl)-7-methyl-4-p-tolyl-6,7,8,9-tetrahydro-5H-pyrimido[4,5-d]azepine] | – | 280 nM | 960 nM | 41 nM |
| COc1ccc(-c2nc(N3CCCC3C)nc3c2CCNCC3)cc1Cl (centres unmarked) [Example 66, 4-(3-chloro-4-methoxyphenyl)-6,7,8,9-tetrahydro-2-(2-methyl-1-pyrrolidinyl)-5H-pyrimido[4,5-d]azepine] | 61 nM | 8 nM | 46 nM | 47 nM |
| FC1CCN(c2nc3c(c(-c4ccc(Cl)c(Cl)c4)n2)CCNCC3)CC1 [Example 67, 4-(3,4-dichlorophenyl)-2-(4-fluoro-1-piperidinyl)-6,7,8,9-tetrahydro-5H-pyrimido[4,5-d]azepine] | – | – | – | 96 nM |
| FC1CCN(c2nc3c(c(-c4ccc(Cl)cc4)n2)CCNCC3)CC1 [Example 68, 4-(4-chlorophenyl)-2-(4-fluoro-1-piperidinyl)-6,7,8,9-tetrahydro-5H-pyrimido[4,5-d]azepine] | 19 nM | 6 nM | 5 nM | 29 nM |
| Cc1ccc(-c2nc(N3CCC(F)CC3)nc3c2CCNCC3)cc1 [Example 69, 2-(4-fluoro-1-piperidinyl)-6,7,8,9-tetrahydro-4-(4-methylphenyl)-5H-pyrimido[4,5-d]azepine] | 35 nM | 5 nM | 5 nM | 13 nM |
| C[C@@H]1CCC[C@H](C)N1c1nc2c(c(-c3ccc(Cl)cc3)n1)CCNCC2 [Example 70, 4-(4-chlorophenyl)-2-[(2R,6S)-2,6-dimethyl-1-piperidinyl]-6,7,8,9-tetrahydro-5H-pyrimido[4,5-d]azepine] | 54 nM | 2 nM | 12 nM | 19 nM |
| Cc1ccc(-c2nc(N3[C@H](C)CCC[C@@H]3C)nc3c2CCNCC3)cc1 [Example 71, 2-[(2R,6S)-2,6-dimethyl-1-piperidinyl]-6,7,8,9-tetrahydro-4-(4-methylphenyl)-5H-pyrimido[4,5-d]azepine] | 36 nM | 1 nM | 9 nM | 19 nM |
| Cc1ccc(-c2nc(N3CCCC3C)nc3c2CCNCC3)cc1 (centres unmarked) [Example 72, 6,7,8,9-tetrahydro-4-(4-methylphenyl)-2-(2-methyl-1-pyrrolidinyl)-5H-pyrimido[4,5-d]azepine] | 28 nM | 2 nM | 4 nM | 32 nM |
| C[C@@H]1CCC[C@H](C)N1c1nc2c(c(-c3ccc(Cl)c(Cl)c3)n1)CCNCC2 [Example 73, 4-(3,4-dichlorophenyl)-2-[(2R,6S)-2,6-dimethyl-1-piperidinyl]-6,7,8,9-tetrahydro-5H-pyrimido[4,5-d]azepine] | 170 nM | 7 nM | 38 nM | 62 nM |
| Clc1ccc(-c2nc(N3CCCCC3)nc3c2CCNCC3)cc1 [Example 74, 4-(4-chlorophenyl)-6,7,8,9-tetrahydro-2-(1-piperidinyl)-5H-pyrimido[4,5-d]azepine] | 4 nM | 3 nM | 1 nM | 46 nM |
| Cc1ccc(-c2nc(N3CCCCC3)nc3c2CCNCC3)cc1Cl [Example 75, 4-(3-chloro-4-methylphenyl)-6,7,8,9-tetrahydro-2-(1-piperidinyl)-5H-pyrimido[4,5-d]azepine] | – | – | – | 85.9 nM |
| Cc1ccc(-c2nc(N3CCC(F)CC3)nc3c2CCNCC3)cc1Cl [Example 76, 4-(3-chloro-4-methylphenyl)-2-(4-fluoro-1-piperidinyl)-6,7,8,9-tetrahydro-5H-pyrimido[4,5-d]azepine] | 38 nM | 16 nM | 15 nM | 39 nM |
| Cc1ccc(-c2nc(N3CCCC3C)nc3c2CCNCC3)cc1Cl (centres unmarked) [Example 77, 4-(3-chloro-4-methylphenyl)-6,7,8,9-tetrahydro-2-(2-methyl-1-pyrrolidinyl)-5H-pyrimido[4,5-d]azepine] | 77 nM | 9 nM | 33 nM | 51 nM |
| Cc1ccc(-c2nc(N3CCCCC3)nc3c2CCNCC3)cc1 [Example 78, 6,7,8,9-tetrahydro-4-(4-methylphenyl)-2-(1-piperidinyl)-5H-pyrimido[4,5-d]azepine] | 2 nM | – | 1 nM | 14 nM |
| Cc1ccc(-c2nc(N3[C@H](C)CCC[C@@H]3C)nc3c2CCNCC3)cc1Cl [Example 79, 4-(3-chloro-4-methylphenyl)-2-[(2R,6S)-2,6-dimethyl-1-piperidinyl]-6,7,8,9-tetrahydro-5H-pyrimido[4,5-d]azepine] | 39 nM | 7 nM | 26 nM | 18 nM |
| COc1ccc(-c2nc(N3CCC(F)CC3)nc3c2CCNCC3)cc1 [Example 81, 2-(4-fluoro-1-piperidinyl)-6,7,8,9-tetrahydro-4-(4-methoxyphenyl)-5H-pyrimido[4,5-d]azepine] | – | – | – | 83 nM |
| C[C@@H]1CCC[C@H](C)N1c1nc2c(c(-c3ccc4c(c3)OCCO4)n1)CCNCC2 [Example 87, 4-(2,3-dihydro-1,4-benzodioxin-6-yl)-2-[(2R,6S)-2,6-dimethyl-1-piperidinyl]-6,7,8,9-tetrahydro-5H-pyrimido[4,5-d]azepine] | – | – | – | 82 nM |
| C[C@@H]1CCC[C@H](C)N1c1nc2c(c(-c3ccc(OC(F)(F)F)cc3)n1)CCNCC2 [Example 90, 2-[(2R,6S)-2,6-dimethyl-1-piperidinyl]-6,7,8,9-tetrahydro-4-[4-(trifluoromethoxy)phenyl]-5H-pyrimido[4,5-d]azepine] | – | – | – | 88 nM |
| CC(C)c1ccc(-c2nc(N3CCS(=O)(=O)CC3)nc3c2CCNCC3)cc1 [Example 101, 2-(1,1-Dioxo-1λ^6-thiomorpholin-4-yl)-4-(4-isopropyl-phenyl)-6,7,8,9-tetrahydro-5H-pyrimido[4,5-d]azepine] | – | 650 nM | 3780 nM | 92 nM |
| c1ccc2ncc(-c3nc(N4CCOCC4)nc4c3CCNCC4)cc2c1 [Example 102, 2-Morpholin-4-yl-4-quinolin-3-yl-6,7,8,9-tetrahydro-5H-pyrimido[4,5-d]azepine] | – | 300 nM | 360 nM | 70 nM |
| FC1(F)CCN(c2nc3c(c(-c4cnc5ccccc5c4)n2)CCNCC3)CC1 [Example 103, 2-(4,4-difluoro-1-piperidinyl)-6,7,8,9-tetrahydro-4-(3-quinolinyl)-5H-pyrimido[4,5-d]azepine] | – | – | – | 42 nM |
